Experimental data as given in publication PMC11575505 (Chemical Science, 2024).
In brackets after ≈: the same amount, converted by molar mass. Where two headings read alike, the source gives them in different places. One block for each compound: values may come before it.

Key:
[1] = system: FOXO1 KTR translocation in A2058 cells; experiment: FOXO1 KTR translocation; type: cell-based
[2] = system: PKB phosphorylation (Ser473) in T47D, MCF7, PC3 and A2058 cells; experiment: Washout, pPKB in-cell western; type: cell-based
Kinetic solubility = type: physicochemical; conditions: for solubility at 2 h: PBS buffer, 25 °C, pH 7.4, aqueous buffer, kinetic from dmso stock
[3] = system: FOXO1 KTR translocation in T47D cells; experiment: FOXO1 KTR translocation; type: cell-based; conditions: for time to import of FOXO1-KTR into the nucleus: 3 μM, live cell imaging
[4] = system: PKB/Akt phosphorylation (Ser473) in T47D cells; experiment: pPKB/Akt in-cell western; type: cell-based; conditions: 1 h; for prevention of PKB phosphorylation: 3 μM to 0.8 nM
[5] = system: PKB/Akt phosphorylation (Ser473) in MCF7 cells; experiment: pPKB/Akt in-cell western; type: cell-based; conditions: MCF7, 1 h; for prevention of PKB phosphorylation: 3 μM to 0.8 nM
[6] = system: PKB/Akt phosphorylation (Ser473) in SKOV3 cells; experiment: pPKB/Akt in-cell western; type: cell-based; conditions: read-out: pPKB/Akt IC50, 1 h of compound exposure
[7] = Intrinsic warhead reactivity; type: physicochemical; conditions: 1 mM compound, 600 mM βME, 37 °C
Nanoluc-p110α fusion = Nanoluc-p110α fusion (Homo sapiens, UniProt P42336); experiment: NanoBRET tracer displacement / diffusion assay in HEK293 cells; type: cell-based; conditions: for increase in cellular permeability versus BYL719: diffusion coefficients
Nanoluc-p110α fusion, sequence (P42336 whole entry, the tested form may be a part): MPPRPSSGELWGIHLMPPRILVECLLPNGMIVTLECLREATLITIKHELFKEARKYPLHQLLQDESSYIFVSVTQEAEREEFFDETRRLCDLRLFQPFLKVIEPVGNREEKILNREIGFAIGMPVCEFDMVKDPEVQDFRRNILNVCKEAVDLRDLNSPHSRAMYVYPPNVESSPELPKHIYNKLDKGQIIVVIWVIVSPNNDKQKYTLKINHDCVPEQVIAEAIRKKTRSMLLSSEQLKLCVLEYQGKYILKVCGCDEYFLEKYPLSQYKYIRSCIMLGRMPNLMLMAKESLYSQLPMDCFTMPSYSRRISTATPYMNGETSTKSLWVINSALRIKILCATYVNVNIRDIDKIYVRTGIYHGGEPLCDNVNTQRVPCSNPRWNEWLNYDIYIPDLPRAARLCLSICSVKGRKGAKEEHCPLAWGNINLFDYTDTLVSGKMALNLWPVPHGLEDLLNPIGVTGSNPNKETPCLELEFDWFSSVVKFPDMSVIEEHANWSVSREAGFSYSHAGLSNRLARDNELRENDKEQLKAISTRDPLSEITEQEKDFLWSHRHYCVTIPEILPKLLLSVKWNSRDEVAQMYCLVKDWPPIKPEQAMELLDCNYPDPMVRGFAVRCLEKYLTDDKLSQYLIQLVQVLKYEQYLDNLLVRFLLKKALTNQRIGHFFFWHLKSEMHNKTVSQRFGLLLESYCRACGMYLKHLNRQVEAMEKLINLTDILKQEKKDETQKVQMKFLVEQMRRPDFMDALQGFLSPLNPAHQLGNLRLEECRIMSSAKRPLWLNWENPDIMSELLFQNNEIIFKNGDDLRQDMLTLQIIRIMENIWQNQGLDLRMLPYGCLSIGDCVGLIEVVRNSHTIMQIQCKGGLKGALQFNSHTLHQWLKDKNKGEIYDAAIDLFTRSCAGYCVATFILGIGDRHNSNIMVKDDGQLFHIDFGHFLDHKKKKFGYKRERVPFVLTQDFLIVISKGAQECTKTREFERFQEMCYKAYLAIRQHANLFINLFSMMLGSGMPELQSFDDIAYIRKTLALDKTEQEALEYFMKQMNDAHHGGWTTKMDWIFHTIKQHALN
Nanoluc-p110α fusion, sequence (P27986 whole entry partner, the tested form may be a part): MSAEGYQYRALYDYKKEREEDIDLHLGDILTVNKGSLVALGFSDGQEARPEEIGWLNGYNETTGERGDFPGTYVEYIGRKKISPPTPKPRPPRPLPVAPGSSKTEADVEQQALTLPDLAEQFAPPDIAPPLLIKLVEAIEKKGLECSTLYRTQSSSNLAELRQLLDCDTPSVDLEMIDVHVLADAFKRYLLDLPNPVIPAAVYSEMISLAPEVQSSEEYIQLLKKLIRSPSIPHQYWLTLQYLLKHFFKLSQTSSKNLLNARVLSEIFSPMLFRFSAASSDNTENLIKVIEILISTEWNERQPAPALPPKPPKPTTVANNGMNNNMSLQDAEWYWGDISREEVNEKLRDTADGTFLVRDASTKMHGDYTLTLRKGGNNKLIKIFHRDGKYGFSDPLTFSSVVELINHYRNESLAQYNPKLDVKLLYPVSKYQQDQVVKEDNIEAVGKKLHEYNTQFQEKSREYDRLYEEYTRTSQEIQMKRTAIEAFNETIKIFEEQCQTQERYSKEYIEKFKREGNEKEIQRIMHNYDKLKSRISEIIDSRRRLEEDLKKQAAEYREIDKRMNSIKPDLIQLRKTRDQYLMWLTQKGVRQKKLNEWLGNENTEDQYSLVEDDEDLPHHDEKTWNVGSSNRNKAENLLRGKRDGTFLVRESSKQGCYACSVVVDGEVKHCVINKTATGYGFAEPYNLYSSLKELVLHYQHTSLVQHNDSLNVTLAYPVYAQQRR

[8] = system: PKB phosphorylation (Ser473) in MDA-MB-453, T47D and MCF7 cells; experiment: Washout, pPKB in-cell western; type: cell-based; conditions: 1 μM for 2 h then washout
[9] = system: PI3K signaling (pPKB Ser473) in serum-starved MCF7 cells; experiment: Receptor ligand stimulated pPKB after washout, western blot; type: cell-based; conditions: for inhibition at 1 µM: Homo sapiens, MCF7, 2 h
p110α = p110α protein levels by western blot; type: cell-based; conditions: 1 μM for 48 h
PI3Kα mutant cell lines = experiment: Growth rate on intermittent exposure; type: cell-based; conditions: 1 μM for 4 h daily over 4 days
PI3Kα-mutant cell lines = experiment: Growth rate inhibition, panel comparison; type: cell-based; conditions: 72 h incubation, GR50

FOXO1-KTR nuclear translocation IC90 ([1]; A2058, 1 h incubation): completely ineffective
solubility at 2 h (Kinetic solubility): 49 µM (≈ 21.6 µg/mL)
SMILES: Cc1nc(NC(=O)N2CCC[C@H]2C(N)=O)sc1-c1ccnc(C(C)(C)C(F)(F)F)c1 [BYL719, reference compound]
reactivation of PI3K/PKB signaling after removal of inhibitor ([2]; all cell lines, 2 h incubation then washout): reactivated PI3K/PBK signaling within the first hour
time to import of FOXO1-KTR into the nucleus [3]: < 20 min
FOXO1-KTR nuclear import IC90 ([3]; 1 h incubation): not able to induce full nuclear translocation

SMILES: CC[C@H](Nc1ncnc2[nH]cnc12)c1nc2cccc(F)c2c(=O)n1-c1ccccc1 [CAL101]
prevention of PKB phosphorylation [4]: did not prevent PKB phosphorylation
prevention of PKB phosphorylation [5]: did not prevent PKB phosphorylation

IC50 [6]: 0.172 µM
Solubility (Kinetic solubility; kinetic solubility at pH 7.4 in PBS): 10 µM (≈ 5.74 µg/mL)
SMILES: CC(C)=CC(=O)CCC(=O)N1CCN(Cc2cc3nc(-c4cccc5[nH]ncc45)nc(N4CCOCC4)c3s2)CC1 [CNX1351, reference compound]
k chem × 10^4 [7]: 2.2 M^−1 s^−1

IC50 [6]: 0.086 µM
solubility at 2 h (Kinetic solubility): 333 µM (≈ 205 µg/mL)
SMILES: C=CC(=O)N1CCC(C(=O)NCC(=O)N2CCN(c3nc(-c4cnc(N)nc4C(F)F)nc(N4CCOCC4)n3)CC2)CC1 [Compound 1]

IC50 [6]: 0.082 µM
solubility at 2 h (Kinetic solubility): 383 µM (≈ 241 µg/mL)
SMILES: C=CC(=O)N1CCC(C(=O)N(C)CC(=O)N2CCN(c3nc(-c4cnc(N)nc4C(F)F)nc(N4CCOCC4)n3)CC2)CC1 [Compound 2]

IC50 [6]: 0.038 µM
solubility at 2 h (Kinetic solubility): 363 µM (≈ 223 µg/mL)
SMILES: C=CC(=O)N1CCC(CN(C)CC(=O)N2CCN(c3nc(-c4cnc(N)nc4C(F)F)nc(N4CCOCC4)n3)CC2)CC1 [Compound 3]

IC50 [6]: 0.069 µM
SMILES: C=CC(=O)N1CCC(C(=O)NCCN2CCN(c3nc(-c4cnc(N)nc4C(F)F)nc(N4CCOCC4)n3)CC2)CC1 [Compound 4]
k chem × 10^4 [7]: ~5.2 ^e M^−1 s^−1

IC90 ([1]; Homo sapiens, A2058, 1 h, read-out: FOXO1-KTR nuclear translocation IC90): 1.66 µM
better cellular potency (lower pPKB IC50) as compared to BYL719 [4]: 5 fold
better cellular potency (lower pPKB IC50) as compared to BYL719 [5]: 8 fold
IC50 [6]: 0.022 µM
IC90 ([3]; Homo sapiens, 1 h, read-out: FOXO1-KTR nuclear import IC90): 0.05 µM
SMILES: C=CC(=O)N1CCC(CCCC(=O)N2CCN(c3nc(-c4cnc(N)nc4C(F)F)nc(N4CCOCC4)n3)CC2)CC1 [Compound 7]
time to nuclear FOXO1 KTR localization ([1]; A2058, 3 μM, live cell imaging): > 40 min
PI3K/PKB signaling after washout ([2]; PTEN-deficient cell lines): ~50%
duration of pathway inhibition after washout ([2]; T47D and MCF7 cells, 3 μM for 2 h then washout): > 18 h
persistence of nuclear FOXO1-KTR localization after washout ([3]; 3 μM then washout): > 10 h
time to import of FOXO1-KTR into the nucleus [3]: < 20 min

IC50 [6]: 0.019 µM
increase in cellular permeability versus BYL719 (Nanoluc-p110α fusion): 2- to 3 fold
SMILES: C=CC(=O)N1CCC(COCC(=O)N2CCN(c3nc(-c4cnc(N)nc4C(F)F)nc(N4CCOCC4)n3)CC2)CC1 [Compound 8]

IC50 [6]: 0.019 µM
solubility at 2 h (Kinetic solubility): 357 µM (≈ 220 µg/mL)
increase in cellular permeability versus BYL719 (Nanoluc-p110α fusion): 2- to 3 fold
faster permeation into cells as compared to 7 (Nanoluc-p110α fusion; human, 4 h): ca. 2.8 ×
SMILES: C=CC(=O)N1CCC(COCC(=O)N2CCN(c3nc(-c4cnc(N)nc4C(F)F)nc(N4CCOC[C@@H]4C)n3)CC2)CC1 [Compound 9]
duration of loss of detectable pPKB after washout [8]: up to 72 h
inhibition at 1 µM ([9]; read-out: inhibition of PI3K signaling in response to CXCL12): 91%
inhibition at 1 µM ([9]; read-out: inhibition of PI3K signaling in response to EGF): 98%
depletion of p110α (p110α; HCC1954 and MDA-MB-453 cells): prominent, indistinguishable depletion of p110α
depletion of p110α (p110α; MCF7 and T47D cells): insignificant
growth rate (PI3Kα mutant cell lines): ≤ 0.5
more potent growth inhibition than reference compounds BYL719 and GDC-0077 (PI3Kα-mutant cell lines): 2- to 273 fold
more potent than the reversible analogue 9r (PI3Kα-mutant cell lines): 6- to 70 fold

time to equilibrium of BRET signal decay (Nanoluc-p110α fusion; HEK293, 200 nM Tracer K-3): ca. 20 min
increase in cellular permeability versus BYL719 (Nanoluc-p110α fusion): 2- to 3 fold
SMILES: CCC(=O)N1CCC(COCC(=O)N2CCN(c3nc(-c4cnc(N)nc4C(F)F)nc(N4CCOC[C@@H]4C)n3)CC2)CC1 [Compound 9r]

solubility at 2 h (Kinetic solubility): 357 µM (≈ 145 µg/mL)
SMILES: C[C@H](Nc1ccc2c(c1)OCCn1cc(N3C(=O)OC[C@H]3C(F)F)nc1-2)C(N)=O [GDC-0077, reference compound]
depletion of p110α (p110α; HCC1954 and MDA-MB-453 cells): prominent, indistinguishable depletion of p110α
depletion of p110α (p110α; MCF7 and T47D cells): insignificant

solubility at 2 h (Kinetic solubility): 10 µM (≈ 4.41 µg/mL)
SMILES: C=CC(=O)N1CCC[C@@H](n2nc(-c3ccc(Oc4ccccc4)cc3)c3c(N)ncnc32)C1 [Ibrutinib, reference compound]

SMILES: Cc1cc(C(C)Nc2ccccc2)c2nc(N3CCOCC3)cc(=O)n2c1 (centres unmarked) [TGX221]
prevention of PKB phosphorylation [4]: did not prevent PKB phosphorylation
suppression of the remaining PI3K signaling, CXCL12 ([9]; MCF7, TGX221 1 μM after 9-wo): 6%
suppression of the remaining PI3K signaling, EGF ([9]; MCF7, TGX221 1 μM after 9-wo): 2%
suppression of the remaining PI3K signaling, insulin ([9]; MCF7, TGX221 1 μM after 9-wo): 12%
prevention of PKB phosphorylation [5]: did not prevent PKB phosphorylation
